This is an account of results in patent US11214565B2, “Compound, compositions, and methods” (Denali Therapeutics Inc., priority 2015, dated 2022).

In general, IC50 refers to the concentration needed to halve the response being measured.

Structures are written as SMILES.

The target in this assay is LRRK2 G2019S enzyme (Homo sapiens (Human), UniProt Q5S007, G2019S). The assay can be described thus: LRRK2 G2019S TR-FRET biochemical kinase assay (LRRKtide substrate). The note with it: 5 nM LRRK2, 134 μM ATP, 60 minute reaction, 23° C. An outline of the steps:
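TR-FRET phospho-LRRKtide readout (2 nM antibody, 10 mM EDTA, 60 min) after a 60 min, 23 °C kinase reaction. The reaction used 134 μM ATP and 5 nM enzyme in pH 7.5 Tris/MgCl2/EGTA/DTT buffer, with compound and enzyme-substrate mix preincubated for 20 min beforehand.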
For orientation: TR-FRET usually uses a lanthanide donor and a delayed reading to cut background.

Sequence of LRRK2 G2019S enzyme (Q5S007 whole entry G2019S): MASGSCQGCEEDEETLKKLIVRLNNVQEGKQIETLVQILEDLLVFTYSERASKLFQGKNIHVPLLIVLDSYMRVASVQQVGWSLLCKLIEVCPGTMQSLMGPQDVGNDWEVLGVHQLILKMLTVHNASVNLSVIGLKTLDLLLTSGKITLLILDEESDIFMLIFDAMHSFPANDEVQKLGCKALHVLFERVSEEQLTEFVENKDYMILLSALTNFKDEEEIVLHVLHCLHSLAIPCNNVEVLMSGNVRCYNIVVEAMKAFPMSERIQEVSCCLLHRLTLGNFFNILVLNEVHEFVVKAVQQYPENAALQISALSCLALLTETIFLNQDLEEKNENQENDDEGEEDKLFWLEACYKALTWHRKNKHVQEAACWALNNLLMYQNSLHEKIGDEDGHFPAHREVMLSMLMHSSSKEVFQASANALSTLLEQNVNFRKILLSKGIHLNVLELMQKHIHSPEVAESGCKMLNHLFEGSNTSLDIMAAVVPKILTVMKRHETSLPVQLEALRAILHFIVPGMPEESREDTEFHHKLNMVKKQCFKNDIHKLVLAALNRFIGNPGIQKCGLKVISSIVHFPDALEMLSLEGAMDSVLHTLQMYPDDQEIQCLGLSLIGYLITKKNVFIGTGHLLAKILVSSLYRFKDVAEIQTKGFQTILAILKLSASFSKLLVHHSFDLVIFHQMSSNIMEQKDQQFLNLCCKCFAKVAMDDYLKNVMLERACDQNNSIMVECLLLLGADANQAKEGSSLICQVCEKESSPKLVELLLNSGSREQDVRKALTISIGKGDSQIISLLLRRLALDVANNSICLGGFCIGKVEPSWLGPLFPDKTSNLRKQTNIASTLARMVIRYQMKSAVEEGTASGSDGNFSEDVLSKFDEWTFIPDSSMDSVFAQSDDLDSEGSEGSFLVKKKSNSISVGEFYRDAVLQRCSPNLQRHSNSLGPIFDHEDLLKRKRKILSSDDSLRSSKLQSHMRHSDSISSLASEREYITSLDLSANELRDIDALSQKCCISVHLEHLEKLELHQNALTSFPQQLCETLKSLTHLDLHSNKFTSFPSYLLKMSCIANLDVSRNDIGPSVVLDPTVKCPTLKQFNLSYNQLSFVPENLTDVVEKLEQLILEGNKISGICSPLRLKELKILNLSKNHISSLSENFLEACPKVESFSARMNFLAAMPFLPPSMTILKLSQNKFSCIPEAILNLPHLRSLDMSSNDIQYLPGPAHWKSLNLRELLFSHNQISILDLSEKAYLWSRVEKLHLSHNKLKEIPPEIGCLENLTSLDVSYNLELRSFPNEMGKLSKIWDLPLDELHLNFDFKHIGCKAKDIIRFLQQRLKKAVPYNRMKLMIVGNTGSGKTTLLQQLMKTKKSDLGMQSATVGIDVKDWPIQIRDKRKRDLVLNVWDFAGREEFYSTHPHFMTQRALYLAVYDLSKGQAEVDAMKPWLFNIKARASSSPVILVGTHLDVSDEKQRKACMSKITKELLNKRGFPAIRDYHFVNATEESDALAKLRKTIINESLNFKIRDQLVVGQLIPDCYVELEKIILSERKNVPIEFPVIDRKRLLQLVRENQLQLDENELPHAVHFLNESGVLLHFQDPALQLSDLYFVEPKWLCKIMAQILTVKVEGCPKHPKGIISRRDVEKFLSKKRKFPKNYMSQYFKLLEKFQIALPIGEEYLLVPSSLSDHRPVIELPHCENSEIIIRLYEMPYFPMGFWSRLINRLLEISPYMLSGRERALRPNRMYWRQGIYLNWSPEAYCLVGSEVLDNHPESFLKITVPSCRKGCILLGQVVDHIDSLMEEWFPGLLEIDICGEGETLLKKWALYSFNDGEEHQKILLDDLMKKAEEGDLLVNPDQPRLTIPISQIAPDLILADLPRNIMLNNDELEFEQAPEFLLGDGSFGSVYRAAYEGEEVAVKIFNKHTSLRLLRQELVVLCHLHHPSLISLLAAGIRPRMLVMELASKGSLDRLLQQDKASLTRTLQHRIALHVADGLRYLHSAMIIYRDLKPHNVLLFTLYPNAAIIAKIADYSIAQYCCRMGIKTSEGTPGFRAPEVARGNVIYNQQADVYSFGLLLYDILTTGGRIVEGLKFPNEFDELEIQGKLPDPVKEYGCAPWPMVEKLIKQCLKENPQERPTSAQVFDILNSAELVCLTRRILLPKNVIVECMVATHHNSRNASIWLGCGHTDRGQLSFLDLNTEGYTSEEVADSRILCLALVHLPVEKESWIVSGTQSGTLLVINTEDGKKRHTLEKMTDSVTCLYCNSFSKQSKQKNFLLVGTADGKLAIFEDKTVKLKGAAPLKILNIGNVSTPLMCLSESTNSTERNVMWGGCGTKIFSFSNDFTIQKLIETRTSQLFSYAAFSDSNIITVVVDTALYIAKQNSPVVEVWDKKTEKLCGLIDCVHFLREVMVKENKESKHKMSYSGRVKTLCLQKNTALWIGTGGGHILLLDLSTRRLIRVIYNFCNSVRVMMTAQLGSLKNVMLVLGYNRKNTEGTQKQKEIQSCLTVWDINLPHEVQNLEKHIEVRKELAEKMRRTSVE

For the compound `COc1nc(Nc2cn(C(C)(C)C#N)nc2C)nc2[nH]cc(C(F)(F)F)c12` [Compound B-14, 2-(4-((4-methoxy-5-(trifluoromethyl)-7H-pyrrolo[2,3-d]pyrimidin-2-yl)amino)-3-methyl-1H-pyrazol-1-yl)-2-methylpropanenitrile], the IC50 (Table B-2) was in the range of 2 to 20 nM. As for `Cc1nn(C(CF)CF)cc1Nc1nc(C2CC2)c2nc[nH]c2n1` [Compound C-1, 6-cyclopropyl-N-[1-[2-fluoro-1-(fluoromethyl)ethyl]-3-methyl-pyrazol-4-yl]-9H-purin-2-amine], the IC50 (Table C-2) was below 50 nM. Same read-out and setting: the value for `Cc1c(Nc2nc(C3CC3)c3nc[nH]c3n2)cnn1C(CF)CF` [Compound C-2, 6-cyclopropyl-N-(1-(1,3-difluoropropan-2-yl)-5-methyl-1H-pyrazol-4-yl)-9H-purin-2-amine] was below 50 nM; that for `Cc1c(Nc2nc(C3CC3)c3nc[nH]c3n2)cnn1C(F)F` [Compound C-4, 6-cyclopropyl-N-(1-(difluoromethyl)-5-methyl-1H-pyrazol-4-yl)-9H-purin-2-amine] was below 50 nM; that for `Cc1c(Nc2nc(C3CC3)c3nc[nH]c3n2)cnn1C` [Compound C-5, 6-cyclopropyl-N-(1,5-dimethylpyrazol-4-yl)-9H-purin-2-amine] was below 50 nM.

Take `Cc1nn(C)cc1Nc1nc(C2CC2)c2nc[nH]c2n1` [Compound C-6, 6-cyclopropyl-N-(1,3-dimethylpyrazol-4-yl)-9H-purin-2-amine]: the IC50 (Table C-2) is below 50 nM.

Take `Cc1c(Nc2nc(C3CC3)c3nc[nH]c3n2)cnn1CC1CC1` [Compound C-7, 6-cyclopropyl-N-(1-(cyclopropylmethyl)-5-methyl-1H-pyrazol-4-yl)-9H-purin-2-amine]: for the setting “Table C-2”, the IC50 was below 50 nM. The same measure, in the same setting: for `c1nc2c(C3CC3)nc(Nc3cnn4c3CC3(CC3)C4)nc2[nH]1` [Compound C-8, N-(6-cyclopropyl-9H-purin-2-yl)spiro[4,6-dihydropyrrolo[1,2-b]pyrazole-5,1 cyclopropane]-3-amine] the value was below 50 nM. `Cc1nn(C(C)(C)C#N)cc1Nc1nc(C2CC2)c2nc[nH]c2n1` [Compound C-9, 2-(4-((6-cyclopropyl-9H-purin-2-yl)amino)-3-methyl-1H-pyrazol-1-yl)-2-methylpropanenitrile]: under “Table C-2”, the IC50 was below 50 nM.

Where the note is “Table C-2”, `Cc1nn(C(C)(C)C#N)cc1Nc1nc(C2CC2)c2c(C#N)c[nH]c2n1` [Compound C-10, 2-[[1-(1-cyano-1-methyl-ethyl)-3-methyl-pyrazol-4-yl]amino]-4-cyclopropyl-7H-pyrrolo[2,3-d]pyrimidine-5-carbonitrile] yielded an IC50 below 50 nM. Same read-out and setting: for `Cc1c(Nc2nc(C3CC3)c3c(C#N)c[nH]c3n2)cnn1C(CF)CF` [Compound C-11, 4-cyclopropyl-2-[[1-[2-fluoro-1-(fluoromethyl)ethyl]-5-methyl-pyrazol-4-yl]amino]-7H-pyrrolo[2,3-d]pyrimidine-5-carbonitrile] the value was below 50 nM. Still for that read-out and setting: for `Cc1nn(C(CF)CF)cc1Nc1nc(C2CC2)c2c(C#N)c[nH]c2n1` [Compound C-12, 4-cyclopropyl-2-[[1-[2-fluoro-1-(fluoromethyl)ethyl]-3-methyl-pyrazol-4-yl]amino]-7H-pyrrolo[2,3-d]pyrimidine-5-carbonitrile] the value was below 50 nM; for `N#Cc1c[nH]c2nc(Nc3cnn4c3CC3(CC3)C4)nc(C3CC3)c12` [Compound C-13, 4-cyclopropyl-2-(spiro[4,6-dihydropyrrolo[1,2-b]pyrazole-5,1′-cyclopropane]-3-ylamino)-7H-pyrrolo[2,3-d]pyrimidine-5-carbonitrile], below 50 nM.

For the compound `Cc1nn(C(C)(C)C#N)cc1Nc1nc(C2CC2)c2c(F)c[nH]c2n1` [Compound C-14, 2-[4-[(4-cyclopropyl-5-fluoro-7H-pyrrolo[2,3-d]pyrimidin-2-yl)amino]-3-methyl-pyrazol-1-yl]-2-methyl-propanenitrile], the IC50 (Table C-2) was below 50 nM.

As for `Cn1ccc(Nc2cc(C3CC3)c3nc[nH]c3n2)n1` [Compound C-17, 7-cyclopropyl-N-(1-methyl-1H-pyrazol-3-yl)-3H-imidazo[4,5-b]pyridin-5-amine], the IC50 (Table C-2) is above 100 nM. On the same count and under the same terms, the value for `Cc1c(Nc2nc(C3CC3)c3c(C#N)c[nH]c3n2)cnn1C` [Compound C-18, 4-cyclopropyl-2-[(1,5-dimethylpyrazol-4-yl)amino]-7H-pyrrolo[2,3-d]pyrimidine-5-carbonitrile] was below 50 nM. Same read-out and setting: the value for `Cc1nn(C)cc1Nc1nc(C2CC2)c2c(C#N)c[nH]c2n1` [Compound C-19, 4-cyclopropyl-2-[(1,3-dimethylpyrazol-4-yl)amino]-7H-pyrrolo[2,3-d]pyrimidine-5-carbonitrile] was below 50 nM; that for `Cc1cn(C)nc1Nc1cc(C2CC2)c2c(C#N)c[nH]c2n1` [Compound C-20, 4-cyclopropyl-6-((1,4-dimethyl-1H-pyrazol-3-yl)amino)-1H-pyrrolo[2,3-b]pyridine-3-carbonitrile] was below 50 nM.

Take `Cn1ccc(Nc2cc(C3CC3)c3c(C#N)c[nH]c3n2)n1` [Compound C-21, 4-cyclopropyl-6-((1-methyl-1H-pyrazol-3-yl)amino)-1H-pyrrolo[2,3-b]pyridine-3-carbonitrile]: the IC50 (Table C-2) was below 50 nM. Under “Table C-2”, `Cc1nn(C(C)(C)C#N)cc1Nc1nc(C2CC2)c2c(Cl)c[nH]c2n1` [Compound C-22] gave an IC50 below 50 nM. Same read-out and setting: for `Cc1nn(C(C)(C)C#N)cc1Nc1nc(C2CC2)c2cc[nH]c2n1` [Compound C-23] the value was below 50 nM. Still for that read-out and setting: for `Cc1nn(C)cc1Nc1nc(C2CC2)c2cc[nH]c2n1` [Compound C-24] the value was below 50 nM; for `Cc1c(Nc2nc(C3CC3)c3cc[nH]c3n2)cnn1C` [Compound C-25], below 50 nM. Still for that read-out and setting: for `Cc1nn(C(C)(C)c2ncn(C)n2)cc1Nc1nc(C2CC2)c2c(C#N)c[nH]c2n1` [Compound C-26] the value was below 50 nM; for `Cc1nn(C(C)(C)c2ncn(C)n2)cc1Nc1nc(C2CC2)c2cc[nH]c2n1` [Compound C-27], below 50 nM. On to `Cc1nn(C(C)(C)c2ncn(C)n2)cc1Nc1nc(C2CC2)c2c(Cl)c[nH]c2n1` [Compound C-28], for which, for the setting “Table C-2”, the IC50 is below 50 nM.

`Cc1nn(C(C)(C)c2ncn(C)n2)cc1Nc1nc(C2CC2)c2c(F)c[nH]c2n1` [Compound C-29] displayed an IC50 (Table C-2) below 50 nM.

As for `Cc1nn(C(CF)CF)cc1Nc1nc(C2CC2)c2cc[nH]c2n1` [Compound C-30], the IC50 (Table C-2) is below 50 nM. Still for that read-out and setting: for `Cc1c(Nc2nc(C3CC3)c3cc[nH]c3n2)cnn1C(CF)CF` [Compound C-31] the value was below 50 nM; for `Cc1c(Nc2nc(C3CC3)c3c(Cl)c[nH]c3n2)cnn1C(CF)CF` [Compound C-32], below 50 nM.

As for `Cc1nc2c(C3CC3)nc(Nc3cnn(C)c3C)nc2[nH]1` [Compound C-33], where the note is “Table C-2”, the IC50 is above 100 nM. Where the note is “Table C-2”, `Cc1nc2c(C3CC3)nc(Nc3cn(C)nc3C)nc2[nH]1` [Compound C-34] had an IC50 above 100 nM.

Under “Table C-2”, `Cc1cn(C)nc1Nc1cc(C2CC2)c2nc[nH]c2n1` [Compound C-35] returned an IC50 above 100 nM.

On to `Cc1nn(C2(C)CC2)cc1Nc1nc(C2CC2)c2nc[nH]c2n1` [Compound C-36], for which, for the setting “Table C-2”, the IC50 was below 50 nM. The same measure, in the same setting: the value for `Cc1nn(C(C)(C)c2ccn(C)n2)cc1Nc1nc(C2CC2)c2nc[nH]c2n1` [Compound C-37] was below 50 nM.

Where the note is “Table C-2”, `Clc1c(Nc2nc(C3CC3)c3nc[nH]c3n2)cnn1CC1CC1` [Compound C-38] returned an IC50 below 50 nM.
